From ChEMBL document CHEMBL1201862, “PubChem BioAssay data set” (2004) come the findings set out here.

Active and inactive are the calls of the source.

The target in test [1] is T1, High affinity choline transporter 1 (Homo sapiens, UniProt Q9GZV3).
T1 sequence (Q9GZV3 whole entry): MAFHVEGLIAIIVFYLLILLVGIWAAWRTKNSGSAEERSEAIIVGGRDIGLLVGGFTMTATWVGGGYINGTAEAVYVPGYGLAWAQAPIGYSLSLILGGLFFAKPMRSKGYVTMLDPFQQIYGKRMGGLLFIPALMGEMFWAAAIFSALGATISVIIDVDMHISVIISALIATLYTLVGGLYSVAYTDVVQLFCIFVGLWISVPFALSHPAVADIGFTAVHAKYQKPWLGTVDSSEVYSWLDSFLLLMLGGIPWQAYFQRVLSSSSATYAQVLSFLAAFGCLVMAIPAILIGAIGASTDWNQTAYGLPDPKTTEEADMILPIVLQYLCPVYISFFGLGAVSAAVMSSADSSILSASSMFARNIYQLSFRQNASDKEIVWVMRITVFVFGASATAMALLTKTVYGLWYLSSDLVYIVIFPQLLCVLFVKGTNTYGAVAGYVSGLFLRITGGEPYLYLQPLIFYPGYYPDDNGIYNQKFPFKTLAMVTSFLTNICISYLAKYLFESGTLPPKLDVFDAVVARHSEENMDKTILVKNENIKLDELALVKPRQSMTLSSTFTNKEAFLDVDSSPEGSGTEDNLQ
Kind of test: CHT activators, dose response, cell-based, 10-point CRC, membrane potential dye (AID 602376). Format: functional.

Test [2] deals with Vascular endothelial growth factor receptor 2 (Homo sapiens, UniProt P35968). Format: functional.
Vascular endothelial growth factor receptor 2, sequence (P35968 whole entry): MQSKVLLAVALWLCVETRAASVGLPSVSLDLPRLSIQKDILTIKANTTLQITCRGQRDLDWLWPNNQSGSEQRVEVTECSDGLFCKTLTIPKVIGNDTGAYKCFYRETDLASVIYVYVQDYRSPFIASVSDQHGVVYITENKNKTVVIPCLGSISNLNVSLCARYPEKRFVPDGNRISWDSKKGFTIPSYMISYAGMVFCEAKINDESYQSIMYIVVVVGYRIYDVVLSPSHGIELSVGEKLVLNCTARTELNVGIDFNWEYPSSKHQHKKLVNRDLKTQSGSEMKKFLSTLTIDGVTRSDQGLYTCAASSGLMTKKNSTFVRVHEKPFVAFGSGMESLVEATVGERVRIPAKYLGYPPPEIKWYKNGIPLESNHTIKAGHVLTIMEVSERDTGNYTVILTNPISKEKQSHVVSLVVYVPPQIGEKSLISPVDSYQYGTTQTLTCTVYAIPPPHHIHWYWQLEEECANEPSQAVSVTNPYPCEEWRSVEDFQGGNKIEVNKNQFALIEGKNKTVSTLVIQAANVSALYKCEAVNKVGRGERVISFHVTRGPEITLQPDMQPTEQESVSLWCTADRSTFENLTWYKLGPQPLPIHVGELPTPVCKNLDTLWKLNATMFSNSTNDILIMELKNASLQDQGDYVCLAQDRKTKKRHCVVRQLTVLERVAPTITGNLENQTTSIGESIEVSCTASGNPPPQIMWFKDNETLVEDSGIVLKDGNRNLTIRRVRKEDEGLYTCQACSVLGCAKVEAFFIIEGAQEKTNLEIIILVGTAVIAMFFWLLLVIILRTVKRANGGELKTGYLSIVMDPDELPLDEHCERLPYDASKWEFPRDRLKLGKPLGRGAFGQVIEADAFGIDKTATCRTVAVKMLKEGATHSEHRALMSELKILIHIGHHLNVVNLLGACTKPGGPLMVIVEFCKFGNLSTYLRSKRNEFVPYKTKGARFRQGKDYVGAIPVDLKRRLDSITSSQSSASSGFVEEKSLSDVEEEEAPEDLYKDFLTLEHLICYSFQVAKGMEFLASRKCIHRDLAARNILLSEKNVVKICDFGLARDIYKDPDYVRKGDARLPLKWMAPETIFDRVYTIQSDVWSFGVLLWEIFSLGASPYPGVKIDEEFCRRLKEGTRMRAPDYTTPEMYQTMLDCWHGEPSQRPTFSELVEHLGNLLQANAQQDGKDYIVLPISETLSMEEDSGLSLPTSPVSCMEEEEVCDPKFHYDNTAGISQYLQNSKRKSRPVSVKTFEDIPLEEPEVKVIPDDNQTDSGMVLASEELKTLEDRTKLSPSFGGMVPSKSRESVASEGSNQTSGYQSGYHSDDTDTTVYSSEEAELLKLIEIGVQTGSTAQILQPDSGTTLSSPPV
For test [3], the target named is Aurora kinase B (Homo sapiens, UniProt Q96GD4). Format: functional.
For test [4], the target named is Aurora kinase A (Homo sapiens, UniProt O14965). Format: functional.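 Also: value from the Navigating the Kinome kinase panel profiling, panel entry STK6.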
Aurora kinase A, sequence (O14965 whole entry): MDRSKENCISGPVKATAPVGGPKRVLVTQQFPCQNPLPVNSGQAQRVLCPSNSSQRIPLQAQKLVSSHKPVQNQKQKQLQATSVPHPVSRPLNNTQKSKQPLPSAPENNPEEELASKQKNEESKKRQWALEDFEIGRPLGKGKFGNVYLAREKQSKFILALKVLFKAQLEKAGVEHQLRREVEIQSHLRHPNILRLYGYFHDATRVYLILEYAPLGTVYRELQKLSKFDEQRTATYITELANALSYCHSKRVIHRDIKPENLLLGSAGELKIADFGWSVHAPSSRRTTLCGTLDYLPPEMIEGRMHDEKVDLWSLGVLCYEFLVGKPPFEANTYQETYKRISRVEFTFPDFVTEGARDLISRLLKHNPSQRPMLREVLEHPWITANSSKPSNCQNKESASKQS
In test [5] the target is Protein disulfide-isomerase (Homo sapiens, UniProt P07237). Kind of test: PDI inhibitors, insulin aggregation turbidity, dose response, biochemical, absorbance, cherry-picked samples (AID 602350). Format: functional.
Test [6] addresses Melanin-concentrating hormone receptor 1 (Homo sapiens, UniProt Q99705). The test is described as follows: Late-stage fluorescence-based counterscreen for antagonists of the G-protein coupled receptor 7 (GPR7): cell-based dose response assay to identify antagonists of the melanin-concentrating hormone receptor 1 (MCHR1) Set 6. Format: functional.
Test [7] concerns the target Neuropeptides B/W receptor type 1 (Homo sapiens, UniProt P48145). Kind of test: GPR7 antagonist potency, late-stage follow-up, cell-based, fluorescence, dose response, set 6 (AID 588583). Format: functional.
The target of test [8] is Cytochrome P450 3A4 (Homo sapiens, UniProt P08684).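 Also: CYP3A4 tested as one member of a cytochrome P450 panel screen.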
Test [9] has as its system INS1. The test is described as follows: beta cell apoptosis inhibitors, cytokine rescue, dose response, luminescence, retest (AID 449756).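 Also: cell death triggered by IL-1 beta plus TNF-alpha plus IFN-gamma mixture; protective hits raise ATP signal compared with cytokine alone wells.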 Format: functional, cell-based. Conditions: Rattus norvegicus.
For test [10], the target named is T2, CAAX prenyl protease 2 (Saccharomyces cerevisiae S288c, UniProt Q03530).
T2 sequence (Q03530 whole entry): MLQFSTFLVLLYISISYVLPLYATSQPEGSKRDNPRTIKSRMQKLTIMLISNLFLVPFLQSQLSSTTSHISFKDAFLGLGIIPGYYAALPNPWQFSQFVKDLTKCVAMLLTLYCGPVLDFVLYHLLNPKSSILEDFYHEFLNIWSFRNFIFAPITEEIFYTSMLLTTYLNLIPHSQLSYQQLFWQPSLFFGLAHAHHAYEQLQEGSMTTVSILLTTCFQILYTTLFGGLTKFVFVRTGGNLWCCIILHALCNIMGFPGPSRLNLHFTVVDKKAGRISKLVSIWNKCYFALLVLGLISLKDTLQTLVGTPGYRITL
Format: biochemical.

In test [11] the target is Disintegrin and metalloproteinase domain-containing protein 17 (Homo sapiens, UniProt P78536). Kind of test: exosite inhibitors of ADAM17, dose response, biochemical (AID 743260).
Disintegrin and metalloproteinase domain-containing protein 17, sequence (P78536 whole entry, the tested form may be a part): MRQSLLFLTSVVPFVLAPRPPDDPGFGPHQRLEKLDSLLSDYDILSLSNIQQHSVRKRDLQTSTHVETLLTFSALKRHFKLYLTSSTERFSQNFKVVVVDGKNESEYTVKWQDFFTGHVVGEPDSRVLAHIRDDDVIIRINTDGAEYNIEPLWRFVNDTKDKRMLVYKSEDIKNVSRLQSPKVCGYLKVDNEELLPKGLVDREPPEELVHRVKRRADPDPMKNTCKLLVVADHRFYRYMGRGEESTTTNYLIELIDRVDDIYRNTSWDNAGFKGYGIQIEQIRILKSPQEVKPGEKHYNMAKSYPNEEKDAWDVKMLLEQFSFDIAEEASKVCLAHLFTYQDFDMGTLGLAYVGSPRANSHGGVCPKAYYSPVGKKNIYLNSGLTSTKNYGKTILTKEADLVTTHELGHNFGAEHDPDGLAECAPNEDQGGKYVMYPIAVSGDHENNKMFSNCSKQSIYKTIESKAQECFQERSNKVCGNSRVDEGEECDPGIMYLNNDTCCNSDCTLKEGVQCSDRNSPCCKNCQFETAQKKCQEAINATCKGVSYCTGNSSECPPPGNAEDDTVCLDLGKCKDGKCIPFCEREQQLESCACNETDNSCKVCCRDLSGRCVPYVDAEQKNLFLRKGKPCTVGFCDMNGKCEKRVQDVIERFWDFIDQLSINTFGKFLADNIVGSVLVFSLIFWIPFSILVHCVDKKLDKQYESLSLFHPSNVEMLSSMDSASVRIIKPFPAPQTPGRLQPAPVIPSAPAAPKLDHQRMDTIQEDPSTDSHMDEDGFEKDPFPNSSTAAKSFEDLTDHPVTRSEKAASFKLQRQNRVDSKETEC
Test [12] is described as follows: ADAM10 protease inhibitors, dose response, selectivity assay for ADAM17 exosite inhibitor project, biochemical, FRET peptide substrate, recombinant human ADAM10 (AID 743259).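 Also: ADAM10 enzyme cleaving a FRET peptide substrate.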
The nature of test [13]: Luminescence Cell-Based Dose Retest to Confirm Inhibitors of Cancer Stem Cells. [Related pubchem assays (depositor defined):AID2717, AID2721]. Format: functional. Conditions: Homo sapiens.
Test [14] can be described thus: mammalian cell cytotoxicity, dose response, cytotoxicity control, plate reader, cherry-pick samples (AID 504397). Format: functional, cell-based.
For test [15], the system named is HEK293. The test is described as follows: cells. Format: functional, cell-based. The following applies: Homo sapiens.
Test [16] relates to HEK293. Kind of test: NOD1 signaling inhibitors, primary screen, cell-based, luminescence, uHTS (AID 1578). Format: functional. The following applies: Homo sapiens.
Test [17] relates to HEK293. The test is described as follows: NOD2 signaling inhibitors in MDP-stimulated cells, cell-based, uHTS, luminescence (AID 2001). Format: functional. Conditions: Homo sapiens.
Test [18] deals with T2, CAAX prenyl protease 2. The test is described as follows: yeast Rce1 CaaX protease inhibitors, dose response, biochemical, plate reader, dry powder retest (AID 588851).
Test [19] deals with HEK293. The test is described as follows: cells. Format: functional, cell-based. Conditions: Homo sapiens. This is another data set of the same source.
Test [20] can be described thus: nonselective inhibitors of cellular cAMP signaling, dose response, counter-screen for MC4R biased antagonist project, cell-based, TR-FRET cAMP detection (AID 602305).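 Also: U2OS cells stimulated with forskolin near its EC80 as the cAMP inducer; potency is for inhibition of forskolin-stimulated cAMP signaling.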 Format: functional.
Test [21] addresses Melanocortin receptor 4 (Homo sapiens, UniProt P32245). The test is described as follows: MC4R antagonist potency on cAMP, dose response, cell-based, TR-FRET, biased antagonists (AID 602298).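 Also: antagonist potency against agonist-stimulated cAMP production.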 Format: functional. (In general: Time-resolved FRET reads energy transfer from a long-lived donor to a nearby acceptor.)
Test [22] has as its target Cyclin-dependent kinase 19 (Homo sapiens, UniProt Q9BWU1). Kind of test: Navigating the Kinome. Panel member name: CDC2L6. Format: functional.
The target of test [23] is Inhibitor of nuclear factor kappa-B kinase subunit epsilon (Homo sapiens, UniProt Q14164). The test is described as follows: Navigating the Kinome. Panel member name: IKBKE. Format: functional.
Test [24] concerns the target T3, DNA dC->dU-editing enzyme APOBEC-3A (Homo sapiens, UniProt P31941). The test is described as follows: SAR analysis of small molecule inhibitors of APOBEC3A DNA Deaminase via a fluorescence-based single-stranded DNA deaminase assay - Set 2. Format: functional. Conditions: read-out: IC50_Mean.
Test [25] addresses T4, DNA dC->dU-editing enzyme APOBEC-3G (Homo sapiens, UniProt Q9HC16). The test is described as follows: SAR analysis of small molecule inhibitors of APOBEC3G DNA Deaminase via a fluorescence-based single-stranded DNA deaminase assay - Set 2. Format: functional. Conditions: read-out: IC50_Mean.
Test [26] in a line: A549 cell cytotoxicity, dose response, cytotoxicity control, plate reader, cherry-pick, antagonist series (AID 743412). Format: functional, cell-based.
Test [27] addresses T5, Nuclear receptor subfamily 0 group B member 1 (Homo sapiens, UniProt P51843).
T5 sequence (P51843 whole entry): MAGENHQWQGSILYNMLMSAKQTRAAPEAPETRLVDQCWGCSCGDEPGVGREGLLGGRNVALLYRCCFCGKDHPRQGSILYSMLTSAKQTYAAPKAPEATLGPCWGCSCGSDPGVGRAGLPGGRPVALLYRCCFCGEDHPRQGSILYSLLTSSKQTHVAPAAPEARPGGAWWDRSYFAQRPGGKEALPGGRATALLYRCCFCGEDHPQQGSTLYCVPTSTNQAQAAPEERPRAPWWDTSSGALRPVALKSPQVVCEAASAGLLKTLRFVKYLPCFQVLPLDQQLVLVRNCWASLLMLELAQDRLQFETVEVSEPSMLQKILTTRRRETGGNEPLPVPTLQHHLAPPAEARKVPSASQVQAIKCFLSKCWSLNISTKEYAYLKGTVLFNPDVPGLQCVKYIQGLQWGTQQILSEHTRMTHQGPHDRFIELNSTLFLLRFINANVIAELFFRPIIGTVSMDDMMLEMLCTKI
Format: functional, cell-based.

Test [28] concerns HEK293. Kind of test: inhibitors of LMP1-driven NF-kB reporter, dose response, cell-based, HEK293, luciferase, cherry-pick (AID 588343). Format: functional. Conditions: Homo sapiens.
The nature of test [29]: MC4R antagonists, dose response, counter-screen for LGR2 antagonist project, cell-based, plate reader, cherry pick (AID 743444).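 Also: transfected HEK 293 cells stimulated with alpha-MSH peptide; potency of inhibitors of the alpha-MSH evoked signal.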 Format: functional. Background: The purpose of a counterscreen is to sort out artefacts and off-target activity.
Test [30] in a line: cells. Format: functional, cell-based.
The target in test [31] is Latent membrane protein 1 (Human herpesvirus 4 (strain B95-8), UniProt P03230). The test is described as follows: TES1-eGFP NF-kB reporter inhibition versus Tet-On dsRED, dose response, selectivity assay for LMP1 NF-kB inhibitor project, imaging, HEK293T, dual-color eGFP/dsRED, cherry-picks (AID 588398). Format: functional, cell-based.
Latent membrane protein 1, sequence (P03230 whole entry): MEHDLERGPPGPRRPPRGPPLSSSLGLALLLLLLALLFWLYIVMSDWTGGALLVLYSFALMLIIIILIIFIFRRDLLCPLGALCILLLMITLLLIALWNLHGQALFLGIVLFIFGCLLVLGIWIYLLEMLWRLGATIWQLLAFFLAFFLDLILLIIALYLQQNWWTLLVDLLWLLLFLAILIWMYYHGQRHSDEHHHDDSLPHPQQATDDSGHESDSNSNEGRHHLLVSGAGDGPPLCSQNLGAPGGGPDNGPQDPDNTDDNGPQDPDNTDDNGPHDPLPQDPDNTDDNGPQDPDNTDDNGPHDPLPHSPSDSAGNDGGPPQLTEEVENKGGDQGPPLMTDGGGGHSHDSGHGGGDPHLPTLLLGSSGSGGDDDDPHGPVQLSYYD
The nature of test [32]: LGR2 antagonists, dose response, cell-based, HEK293, CRE-luciferase reporter, cherry pick, set 2 (AID 743343).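 Also: transfected cells were stimulated with diluted bursicon conditioned medium after compound addition.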 Format: functional. (In general: A reporter such as luciferase makes a cellular process visible.)
Test [33] deals with T4, DNA dC->dU-editing enzyme APOBEC-3G. The test is described as follows: APOBEC3G deaminase inhibitors, SAR follow-up, biochemical, fluorescence, single-stranded DNA substrate (AID 602136). Conditions: read-out: IC50_Mean. Format: functional.
Test [34] has as its target T3, DNA dC->dU-editing enzyme APOBEC-3A. The test is described as follows: SAR analysis of small molecule inhibitors of APOBEC3A DNA Deaminase via a fluorescence-based single-stranded DNA deaminase assay. Format: functional. The following applies: read-out: IC50_Mean.

T4 sequence (Q9HC16 whole entry): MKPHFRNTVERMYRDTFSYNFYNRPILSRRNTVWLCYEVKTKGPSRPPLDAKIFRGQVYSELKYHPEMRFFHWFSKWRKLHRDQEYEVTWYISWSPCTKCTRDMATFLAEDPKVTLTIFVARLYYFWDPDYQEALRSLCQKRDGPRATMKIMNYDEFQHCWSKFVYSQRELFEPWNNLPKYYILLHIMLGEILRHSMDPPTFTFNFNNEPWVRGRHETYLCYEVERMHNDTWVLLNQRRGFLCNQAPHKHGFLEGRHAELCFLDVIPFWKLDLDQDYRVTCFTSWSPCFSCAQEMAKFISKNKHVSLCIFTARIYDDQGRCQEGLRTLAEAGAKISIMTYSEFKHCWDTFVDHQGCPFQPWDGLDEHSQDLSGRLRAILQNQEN
T3 sequence (P31941 whole entry): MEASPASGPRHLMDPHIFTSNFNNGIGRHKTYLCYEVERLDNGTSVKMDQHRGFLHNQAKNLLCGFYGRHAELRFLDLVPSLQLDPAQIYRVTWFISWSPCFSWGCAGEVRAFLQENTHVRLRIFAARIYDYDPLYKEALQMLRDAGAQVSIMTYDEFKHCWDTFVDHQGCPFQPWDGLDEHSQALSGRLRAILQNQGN
Cyclin-dependent kinase 19, sequence (Q9BWU1 whole entry): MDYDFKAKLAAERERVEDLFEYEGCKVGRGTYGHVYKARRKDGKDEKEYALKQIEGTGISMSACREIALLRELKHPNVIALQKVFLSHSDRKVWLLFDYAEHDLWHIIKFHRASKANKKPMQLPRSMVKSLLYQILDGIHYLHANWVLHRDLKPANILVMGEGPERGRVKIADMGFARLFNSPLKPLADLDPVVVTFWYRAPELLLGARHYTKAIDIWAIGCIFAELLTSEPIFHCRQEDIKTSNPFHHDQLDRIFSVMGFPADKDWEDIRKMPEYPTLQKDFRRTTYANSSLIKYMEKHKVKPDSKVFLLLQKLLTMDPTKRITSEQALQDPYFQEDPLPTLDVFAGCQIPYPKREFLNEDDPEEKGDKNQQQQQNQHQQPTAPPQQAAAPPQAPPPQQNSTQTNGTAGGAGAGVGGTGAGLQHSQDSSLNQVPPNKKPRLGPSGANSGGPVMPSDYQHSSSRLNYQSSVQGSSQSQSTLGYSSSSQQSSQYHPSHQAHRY
Neuropeptides B/W receptor type 1, sequence (P48145 whole entry): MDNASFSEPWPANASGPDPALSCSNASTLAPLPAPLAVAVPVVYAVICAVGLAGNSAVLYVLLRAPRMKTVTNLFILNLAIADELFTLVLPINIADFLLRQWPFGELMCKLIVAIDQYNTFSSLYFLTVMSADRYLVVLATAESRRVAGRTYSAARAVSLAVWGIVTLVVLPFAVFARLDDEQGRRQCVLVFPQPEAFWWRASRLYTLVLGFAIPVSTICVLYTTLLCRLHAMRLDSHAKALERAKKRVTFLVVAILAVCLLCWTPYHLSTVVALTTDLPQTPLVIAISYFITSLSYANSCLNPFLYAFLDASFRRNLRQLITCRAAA
Melanocortin receptor 4, sequence (P32245 whole entry): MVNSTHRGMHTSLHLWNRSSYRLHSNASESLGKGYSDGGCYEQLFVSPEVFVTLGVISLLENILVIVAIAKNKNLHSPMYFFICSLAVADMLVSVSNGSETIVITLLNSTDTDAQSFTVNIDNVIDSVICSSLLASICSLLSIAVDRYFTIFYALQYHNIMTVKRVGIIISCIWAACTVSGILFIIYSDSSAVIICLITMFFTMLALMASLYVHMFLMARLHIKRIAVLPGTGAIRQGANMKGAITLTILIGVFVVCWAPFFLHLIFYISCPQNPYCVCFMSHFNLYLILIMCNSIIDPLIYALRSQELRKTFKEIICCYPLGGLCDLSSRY

Consider `CCOC(=O)c1sc(NC(=O)Cc2ccccc2OC)nc1C`, for which the EC50 – broadly, the concentration giving half of the maximal effect – in test [1] was 22.4 µM (active).

As to `Cn1c(SC(C(=O)O)c2ccccc2)nc2ccccc2c1=O` (stereo not given), the Ki (as a rule, a measure of affinity in units of concentration, obtained from inhibition or displacement) was > 5.01 µM (inactive) in [2], 0.0794 µM (active) in test [3] and > 2 µM (inactive) in test [4].

As for `CN(C)S(=O)(=O)c1ccc(Cl)c(NC(=O)CSc2nnnn2-c2ccc(O)cc2)c1`, the AC50 (as a rule, the concentration giving half of the maximal activity seen) in test [5] is 19.5 µM (active).

As for `N#CC(C(=O)N1CCCC1)c1c(Cl)cnn(Cc2cccc3ccccc23)c1=O` (stereo not given), the IC50 in test [6] and in test [7] was 0.915 µM (active) in each case.

For `Cc1cc(C)n(Cc2ccc(NC(=O)c3ccc(COc4ccccc4Br)cc3)cc2)n1`, the AC50 in test [8] was 14.1 µM (inconclusive); in [9], 8.58 µM (active); in test [10], 1.08 µM (active); in [13] it was 1.56 µM (active); in test [14] it was 48.8 µM (active); in [18] it was 9.4 µM (active). In addition, the IC50 is > 69.5 µM (inactive) in test [11]; > 69.5 µM (inactive) in test [12]; 4.34 µM (active) in test [15]; 4.26 µM (active) in test [17]; 13.2 µM (active) in test [19]. Also, in [16], the EC50 was 8.42 µM (active).

Turning to `Cc1nc2c(sc3nc(N4CCOCC4)c4c(c32)CC(C)(C)OC4)c(-c2ccccc2)c1C(=O)O`, the results for the IC50 in test [20] and in test [21] were > 64.6 µM (inactive) and 15.5 µM (inactive), respectively. Moreover, the AC50 in test [13] was 0.324 µM (active).

As to `Nc1noc2c(CN3CCOCC3)ccc(-c3ccc(NC(=O)Nc4cc(C(F)(F)F)ccc4F)cc3)c12`, the Ki in [22] was > 100 µM (inactive); in [23], 1 µM (active).

As for `Cc1cc(C)n2nc(C(=O)NCc3ccccc3)c(Br)c2n1`, the IC50 was 76.8 µM (inactive) in [24] and > 99 µM (inactive) in [25].

As to `c1ccc(-c2cn3c4c(sc3n2)CCCC4)cc1`, the AC50 is 41.1 µM (active) in [26]; 1.92 µM (active) in test [28]; 4.25 µM (active) in test [29]; 31.6 µM (active) in test [31]; 2.72 µM (active) in [32]. For the same molecule, the IC50 in [27] and in test [30] was > 67.6 µM (inactive) throughout.

With `COc1ccc(-c2nnc(SC(C)C(=O)Nc3nc(-c4ccc(F)c(F)c4)cs3)[nH]2)cc1` (stereo not given), the IC50 is 40.5 µM (inactive) in test [33] and > 99 µM (inactive) in test [34].
